The values below are quoted from earlier work in US8309133B2, “Nanoparticulate quinazoline derivative formulations” (Alkermes Pharma Ireland Limited, priority 2005, dated 2012).

The conditions of data set [1]: oral tablet.
For data set [2] the following is noted: water at 37° C.

Read-outs that look alike come from different tables or passages of the source.

With `C#Cc1cccc(Nc2ncnc3cc(OCCOC)c(OCCOC)cc23)c1.Cl` [erlotinib HCl, N-(3-ethynylphenyl)-6,7-bis(2-methoxyethoxy)-4-quinazolinamine], the results for the Absorption in data set [1] (administered with food) and in data set [1] (without food) were 100% and 60%, respectively. Besides, the Solubility in water entry in data set [2] was “very slightly soluble”.
